In patent US12692262B2, “Substituted ureas as orexin receptor agonists” (Merck Sharp & Dohme LLC, priority 2020, dated 2026):

Molecular target: T1, human OX2R (Homo sapiens, UniProt O43614)
T1 construct: expressed in transfected cells; host or cells: CHO (Chinese hamster ovary) cells grown under G418 selection
T1 sequence (O43614 1-444): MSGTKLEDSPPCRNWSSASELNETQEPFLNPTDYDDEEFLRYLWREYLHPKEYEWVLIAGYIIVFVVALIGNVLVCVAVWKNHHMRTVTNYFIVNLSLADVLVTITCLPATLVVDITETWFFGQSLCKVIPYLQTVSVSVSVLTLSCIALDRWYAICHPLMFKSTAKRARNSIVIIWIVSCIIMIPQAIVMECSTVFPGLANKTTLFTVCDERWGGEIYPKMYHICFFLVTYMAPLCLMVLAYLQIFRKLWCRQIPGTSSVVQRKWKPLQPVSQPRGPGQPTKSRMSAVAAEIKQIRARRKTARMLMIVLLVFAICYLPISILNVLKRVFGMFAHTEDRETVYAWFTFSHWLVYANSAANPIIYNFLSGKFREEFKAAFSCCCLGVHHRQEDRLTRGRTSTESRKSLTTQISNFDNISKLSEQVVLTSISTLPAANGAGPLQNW
Assay: IPOne (IP-1 accumulation) assay in CHO cells expressing human OX2R
Type: cell-based
Conditions: for EC50: CHO cells expressing human OX2R, IP-One assay, 2 h incubation, four parameter logistic fit, read-out: OX2R Potency, EC50; for % of maximum agonist effect (relative to Orexin A): percent effect vs mean max effect of a reference compound at 1 uM (100% activity vs Orexin A), human OX2R
Method in brief: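 CHO cells stably expressing human OX2R, grown in Iscove's modified DMEM with 10% FBS; agonist-driven IP-1 accumulation via the Gαq pathway measured by HTRF (D2/AB-cryptate detection after lysis). EC50 taken as the inflection point of a four-parameter logistic fit.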

SMILES | EC50 [µM] | % of maximum agonist effect (relative to Orexin A) [%]
CCN(C(=O)NCC(N(C)C)C(F)(F)F)[C@H](C)c1cccc(-c2cc(OC)c3nccn3c2)c1 (stereo partly drawn) [Example 1-7, 3-(2-(dimethylamino)-3,3,3-trifluoropropyl)-1-ethyl-1-((R)-1-(3-(8-methoxyimidazo[1,2-a]pyridin-6-yl)phenyl)ethyl)urea] | 0.0175 | 97.3
CCN(C(=O)N[C@@H](CCC(F)(F)F)C(F)(F)F)[C@@H](c1cc(-c2cc(OC)c3[nH]cnc3c2)c(OC)cn1)C(F)(F)F [Example 10-15, 1-ethyl-3-((S)-1,1,1,5,5,5-hexafluoropentan-2-yl)-1-((S)-2,2,2-trifluoro-1-(5-methoxy-4-(7-methoxy-1H-benzo[d]imidazol-5-yl)pyridin-2-yl)ethyl)urea] | 0.0064 | 99.8
CCN(C(=O)N[C@@H](CCC(F)(F)F)C(F)(F)F)C(C)c1cc(-c2cc(F)c3nccn3c2)c(Cl)cn1 (single isomer, unassigned) [Example 15-1] | 0.0058 | 100.5
CCN(C(=O)NC(CC(F)(F)F)C1CC1)C(c1cc(-c2cn3ccnc3c(OC)n2)c(OC)cn1)C(F)(F)F (stereo not drawn) [Example 6-3, 3-(1-cyclopropyl-3,3,3-trifluoropropyl)-1-ethyl-1-(2,2,2-trifluoro-1-(5-methoxy-4-(8-methoxyimidazo[1,2-a]pyrazin-6-yl)pyridin-2-yl)ethyl)urea] | 0.0136 | 100.2
CCN(C(=O)N[C@@H](CCC(F)(F)F)C(F)(F)F)C(c1cc(-c2cc(OC)c3nccn3n2)c(OC)cn1)C(F)(F)F (stereo partly drawn) [Example 10-10, 1-ethyl-3-((S)-1,1,1,5,5,5-hexafluoropentan-2-yl)-1-(2,2,2-trifluoro-1-(5-methoxy-4-(8-methoxyimidazo[1,2-b]pyridazin-6-yl)pyridin-2-yl)ethyl)urea] | 0.0047 | 100.8
CC[C@H](CCC(F)(F)F)NC(=O)N(CC)[C@H](C)c1cccc(-c2cn3ccnc3c(SC)n2)c1 [Example 8-1, 1-ethyl-1-((R)-1-(3-(8-(methylthio)imidazo[1,2-a]pyrazin-6-yl)phenyl)ethyl)-3-((R)-6,6,6-trifluorohexan-3-yl)urea] | 0.211 | 96.1
CCN(C(=O)NC1CC1(F)F)[C@@H](c1cc(-c2cn3ccnc3c(OC)n2)c(OC)cn1)C(F)(F)F (stereo partly drawn) [Example 2-42, 3-(2,2-difluorocyclopropyl)-1-ethyl-1-((S)-2,2,2-trifluoro-1-(5-methoxy-4-(8-methoxyimidazo[1,2-a]pyrazin-6-yl)pyridin-2-yl)ethyl)urea] | 0.0278 | 101.7
CC[C@H](CCC(F)(F)F)NC(=O)N(CC)[C@H](C)c1ccc(OC)c(-c2cnc3[nH]ccc3c2)c1 [Example 8-5, 1-ethyl-1-((R)-1-(4-methoxy-3-(1H-pyrrolo[2,3-b]pyridin-5-yl)phenyl)ethyl)-3-((R)-6,6,6-trifluorohexan-3-yl)urea] | 0.0478 | 96.1
CCN(C(=O)NC(COC(C)=O)C(F)(F)F)[C@H](C)c1cccc(-c2cn3ccnc3c(OC)n2)c1 (stereo partly drawn) [Example 22, 2-(3-ethyl-3-((R)-1-(3-(8-methoxyimidazo[1,2-a]pyrazin-6-yl)phenylethyl)ureido)-3,3,3-trifluoropropyl acetate] | 0.0253 | 97.0
CCN(C(=O)NC(C#N)C1CCCC(F)(F)C1)[C@H](C)c1cccc(-c2cn3ccnc3c(OC)n2)c1 (single isomer, unassigned) [Example 16] | 0.0032 | 100.8
CCN(C(=O)N[C@@H](C(C)(C)C)C(F)(F)F)[C@@H](c1cc(-c2cn3ccnc3c(OC)n2)c(OC)cn1)C(F)(F)F [Example 2-28, 1-ethyl-1-((S)-2,2,2-trifluoro-1-(5-methoxy-4-(8-methoxyimidazo[1,2-a]pyrazin-6-yl)pyridin-2-yl)ethyl)-3-((S)-1,1,1-trifluoro-3,3-dimethylbutan-2-yl)urea] | 0.0161 | 99.1
CC[C@H](CCC(F)(F)F)NC(=O)N(CC)Cc1ccc(OC)c(-c2cc(OC)c3nccn3c2)c1 [Example 1-8, (R)-1-ethyl-1-(4-methoxy-3-(8-methoxyimidazo[1,2-a]pyridin-6-yl)benzyl)-3-(6,6,6-trifluorohexan-3-yl)urea] | 0.0008 | 96.5
CCN(C(=O)NC(C)C(F)F)[C@@H](c1cc(-c2cn3ccnc3c(OC)n2)c(OC)cn1)C(F)(F)F (stereo partly drawn) [Example 2-41, 3-(1,1-difluoropropan-2-yl)-1-ethyl-1-((S)-2,2,2-trifluoro-1-(5-methoxy-4-(8-methoxyimidazo[1,2-a]pyrazin-6-yl)pyridin-2-yl)ethyl)urea] | 0.0163 | 101.2
CCN(C(=O)N[C@@H](CCC(F)(F)F)C(F)(F)F)[C@H](C)c1cccc(-c2ccc3nccn3c2)c1 [Example 1-1, 1-ethyl-3-((S)-1,1,1,5,5,5-hexafluoropentan-2-yl)-1-((R)-1-(3-(imidazo[1,2-a]pyridin-6-yl)phenyl)ethyl)urea] | 0.0071 | 98.4
CCN(C(=O)N[C@@H](C1CCCC(F)(F)C1)C(F)(F)F)[C@H](C)c1cccc(-c2cn3ccnc3c(OC)n2)c1 (single isomer, unassigned) [Example 3-1] | 0.0009 | 100.8
CCN(C(=O)NC(CCCF)C1CC1)[C@@H](c1cc(-c2cn3cc(C)nc3c(OC)n2)c(OC)cn1)C(F)(F)F (stereo partly drawn) [Example 6-4, 3-(1-cyclopropyl-4-fluorobutyl)-1-ethyl-1-((S)-2,2,2-trifluoro-1-(5-methoxy-4-(8-methoxy-2-methylimidazo[1,2-a]pyrazin-6-yl)pyridin-2-yl)ethyl)urea] | 0.016 | 100.3
CC[C@H](CCC(F)(F)F)NC(=O)N(CC)[C@@H](c1cc(-c2cn3ccnc3c(OC)n2)c(OC)cn1)C(F)(F)F [Example 2-21, 1-ethyl-1-((S)-2,2,2-trifluoro-1-(5-methoxy-4-(8-methoxyimidazo[1,2-a]pyrazin-6-yl)pyridin-2-yl)ethyl)-3-((R)-6,6,6-trifluorohexan-3-yl)urea] | 0.0008 | 99.6
CCN(C(=O)N[C@@H](CCC(F)(F)F)C(F)(F)F)C(C)c1ccnc(-c2cn3ccnc3c(OC)n2)n1 (stereo partly drawn) [Example 2-63, 1-ethyl-3-((S)-1,1,1,5,5,5-hexafluoropentan-2-yl)-1-(1-(2-(8-methoxyimidazo[1,2-a]pyrazin-6-yl)pyrimidin-4-yl)ethyl)urea] | 1.06 | 96.2
CCN(C(=O)N[C@@H](CCC(F)(F)F)C(F)(F)F)[C@@H](c1cccc(-c2cn3ccnc3c(OC)n2)c1)C(F)(F)F [Example 2-22, N-ethyl-N′-[(2S)-1,1,1,5,5,5-hexafluoropentan-2-yl]-N-{2,2,2-trifluoro-1-[3-(8-methoxyimidazo[1,2-a]pyrazin-6-yl)phenyl]ethyl}urea] | 0.0028 | 101.5
CCN(C(=O)N[C@H](C)C1CCC(F)(F)CC1)[C@H](C)c1cccc(-c2cn3ccnc3c(OC)n2)c1 [Example 1-4, 3-((R)-1-(4,4-difluorocyclohexyl)ethyl)-1-ethyl-1-((R)-1-(3-(8-methoxyimidazo[1,2-a]pyrazin-6-yl)phenyl)ethyl)urea] | 0.0069 | 96.1
CC[C@H](CCC(F)(F)F)NC(=O)N(CC)[C@H](C)c1ccc(Br)c(-c2ccc3nccn3c2)c1 [Example 11-3, 1-((R)-1-(4-bromo-3-(imidazo[1,2-a]pyridin-6-yl)phenyl)ethyl)-1-ethyl-3-((R)-6,6,6-trifluorohexan-3-yl)urea] | 0.129 | 91.8
CCc1nc(-c2cc([C@H](N(CC)C(=O)N[C@@H](CCC(F)(F)F)C(F)(F)F)C(F)(F)F)ncc2OC)cn2ccnc12 [Example 9-2, 1-ethyl-1-((S)-1-(4-(8-ethylimidazo[1,2-a]pyrazin-6-yl)-5-methoxypyridin-2-yl)-2,2,2-trifluoroethyl)-3-((S)-1,1,1,5,5,5-hexafluoropentan-2-yl)urea] | 0.0055 | 100.5
CCN(C(=O)N[C@@H](CCC(F)(F)F)C(F)(F)F)[C@@H](c1cc(-c2cn3cc(C)nc3c(OC)n2)c(OC)cn1)C(F)(F)F [Example 10-9, 1-ethyl-3-((S)-1,1,1,5,5,5-hexafluoropentan-2-yl)-1-((S)-2,2,2-trifluoro-1-(5-methoxy-4-(8-methoxy-2-methylimidazo[1,2-a]pyrazin-6-yl)pyridin-2-yl)ethyl)urea] | 0.0027 | 102.5
CC[C@H](CCC(F)(F)F)NC(=O)N(CC)[C@H](C)c1ccc(OC)c(-c2cc(N)c3nccn3c2)c1 [Example 8-4, 1-((R)-1-(3-(8-aminoimidazo[1,2-a]pyridin-6-yl)-4-methoxyphenyl)ethyl)-1-ethyl-3-((R)-6,6,6-trifluorohexan-3-yl)urea] | 0.0259 | 98.7
